# Test results from article PMC3869726, “Inhibition of Human Neutrophil Elastase by Pentacyclic Triterpenes” (PLoS ONE, 2013).
# “And” between values parts separate entries of the source, which are not always exact repeats. Identical values can stand only once.
# What was measured:
# [1] = target: T1, Human neutrophil elastase (HNE) (Homo sapiens, UniProt P08246); test: HNE activity inhibitory bioassay (MeO-Suc-Ala-Ala-Pro-Val-pNA hydrolysis, absorbance 405 nm); type: biochemical; details: for IC50: in vitro HNE assay, read-out: IC50, HNE inhibition; for Anti-HNE activity, inhibitory ratio: n = 3; for inhibition at 100 µM: tetracyclic triterpenoids (Table S3)
# T1 construct: HNE (EC 3.4.21.37) from human leukocytes was purchased; purchased Innovative Research Company (Novi, Michigan); host or cells: human leukocytes (natural source)
# T1 sequence (P08246 30-247 limits assumed): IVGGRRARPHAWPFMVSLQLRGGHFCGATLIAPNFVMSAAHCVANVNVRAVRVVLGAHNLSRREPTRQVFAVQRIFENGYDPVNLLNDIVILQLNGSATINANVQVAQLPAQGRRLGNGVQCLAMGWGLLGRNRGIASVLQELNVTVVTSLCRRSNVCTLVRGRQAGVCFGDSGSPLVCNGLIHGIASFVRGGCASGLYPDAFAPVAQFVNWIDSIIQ
# HNE = target: T2, HNE (Homo sapiens, UniProt P08246); test: 1H NMR spin-lattice relaxation rates (Rns, Rse) of ligand with and without HNE; type: binding; details: pH 7.0, 298 K;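 further: ligand in d6-DMSO with 50 mM phosphate buffer, selective and nonselective spin-lattice rates from an inversion-recovery pulse sequence, computed by initial-rate approximation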
# T2 construct: HNE (EC 3.4.21.37) from human leukocytes was purchased; purchased Innovative Research Company (Novi, Michigan); host or cells: human leukocytes (natural source)
# T2 sequence (P08246 30-247 limits assumed): T1 sequence (P08246 30-247 limits assumed)
# [2] = system: acute smoke-induced airway inflammation in mice; test: Acute smoke-induced lung (airway) inflammation model in mice, BALF analysis
# [3] = target: T1, Human neutrophil elastase (HNE); test: Enzyme inhibition kinetic analysis of HNE (Michaelis-Menten / Lineweaver-Burk); type: biochemical
# [4] = smoke exposure, 50 mg/kg intraperitoneal
structure (smiles),measurement,setting,value
"COC(=O)[C@]12CCC(C)(C)C[C@H]1[C@H]1C(=O)C=C3[C@@]4(C)C=C(C#N)C(=O)C(C)(C)[C@@H]4CC[C@@]3(C)[C@]1(C)CC2 [CDDO-Me, C-28 methyl ester of 2-cyano-3,12-dioxoolen-1,9-dien-28-oic acid, reference compound]",IC50,[1],16.6 µM
"C[C@H]1[C@H](C)CC[C@]2(C(=O)O)CC[C@]3(C)C(=CC[C@@H]4[C@@]5(C)CC[C@H](O)C(C)(C)[C@@H]5CC[C@]43C)[C@H]12 [Compound 1, ursolic acid]","Rns/Rse, proton H3",HNE; free ligand 1 mM,0.93
same,"Rns/Rse, proton H12",HNE; free ligand 1 mM,0.88
same,"Rns/Rse, proton H18",HNE; free ligand 1 mM,0.92
same,"Rns/Rse, proton H3",HNE; ligand 1 mM + HNE 5 µM,0.73
same,"Rns/Rse, proton H12",HNE; ligand 1 mM + HNE 5 µM,0.62
same,"Rns/Rse, proton H18",HNE; ligand 1 mM + HNE 5 µM,0.81
same,"Anti-HNE activity, inhibitory ratio",[1]; 1 µM compound,12.22±6.64%
same,"Anti-HNE activity, inhibitory ratio","[1]; 1 µM compound, listed as Ursolic acid (1)",12.2%
same,"Anti-HNE activity, inhibitory ratio",[1]; 3 µM compound,36.47±5.75 %
same,"Anti-HNE activity, inhibitory ratio",[1]; 10 µM compound,80.84±3.14 %
same,"Anti-HNE activity, inhibitory ratio",[1]; 30 µM compound,82.98±5.67 %
same,"Anti-HNE activity, inhibitory ratio","[1]; 30 µM compound, listed as ursolic acid",more than 80%
same,"Anti-HNE activity, inhibitory ratio",[1]; 100 µM compound,88.47±2.96 %
same,IC50,[1],5.51 µM and ~5.51 µM
same,inhibition of the smoke-induced increase in BALF NE,[2]; 50 mg/kg intraperitoneal,54%
same,inhibition of the smoke-induced increase in BALF TNF-α,[2]; 50 mg/kg intraperitoneal,38%
same,dose with significant inhibition of BALF TNF-α,"[2]; doses 10, 30, 100 mg/kg, dose-dependent",≥ 10 mg/kg
same,dose with significant inhibition of BALF NE,"[2]; doses 10, 30, 100 mg/kg, dose-dependent, P<0.05",30 mg/kg
same,levels of BALF NE and TNF-α in vivo,[2]; smoke exposure,significantly suppressed
same,number of neutrophils in BALF,[2]; [4],significantly reduced
same,number of total leukocytes in BALF,[2]; [4],significantly reduced
same,mode of HNE inhibition with respect to substrate,"[3]; 0, 3, 10 µM ursolic acid, six substrate concentrations 0.2-2 mM, 37°C",competitively inhibits HNE
same,"apparent maximum velocity Vmax′, trend","[3]; as a function of ursolic acid concentration 0-10 µM, P>0.05",invariable
same,"apparent Michaelis-Menten constant Kapp, trend","[3]; ursolic acid increasing from 0 µM to 10 µM, P<0.05",increased
"CC1(C)[C@@H](O)CC[C@]2(C)[C@H]3C(=O)C=C4[C@@H]5C[C@@](C)(C(=O)O)CC[C@]5(C)CC[C@@]4(C)[C@]3(C)CC[C@@H]12 [Compound 3, glycyrrhetinic acid]","Rns/Rse, proton H3",HNE; free ligand 1 mM,0.96
same,"Rns/Rse, proton H5",HNE; free ligand 1 mM,0.92
same,"Rns/Rse, proton H12",HNE; free ligand 1 mM,0.94
same,"Rns/Rse, proton H18",HNE; free ligand 1 mM,2.29
same,"Rns/Rse, proton H3",HNE; ligand 1 mM + HNE 5 µM,0.74
same,"Rns/Rse, proton H5",HNE; ligand 1 mM + HNE 5 µM,0.84
same,"Rns/Rse, proton H12",HNE; ligand 1 mM + HNE 5 µM,0.85
same,"Rns/Rse, proton H18",HNE; ligand 1 mM + HNE 5 µM,0.81
same,"Anti-HNE activity, inhibitory ratio",[1]; 1 µM compound,0.06±6.40%
same,"Anti-HNE activity, inhibitory ratio",[1]; 3 µM compound,1.05±5.24%
same,"Anti-HNE activity, inhibitory ratio",[1]; 10 µM compound,21.09±4.96%
same,"Anti-HNE activity, inhibitory ratio",[1]; 30 µM compound,45.84±0.41 %
same,"Anti-HNE activity, inhibitory ratio",[1]; 100 µM compound,75.20±2.89 %
same,IC50,[1],~36.9 µM
"CC1(C)[C@@H](O[C@H]2O[C@H](C(=O)O)[C@@H](O)[C@H](O)[C@H]2O[C@@H]2O[C@H](C(=O)O)[C@@H](O)[C@H](O)[C@H]2O)CC[C@]2(C)[C@H]3C(=O)C=C4[C@@H]5C[C@@](C)(C(=O)O)CC[C@]5(C)CC[C@@]4(C)[C@]3(C)CC[C@@H]12 [Compound 4, glycyrrhizin]","Rns/Rse, proton H9",HNE; free ligand 1 mM,0.64
same,"Rns/Rse, proton H12",HNE; free ligand 1 mM,0.87
same,"Rns/Rse, proton glc-H1’",HNE; free ligand 1 mM,0.54
same,"Rns/Rse, proton glc-H1”",HNE; free ligand 1 mM,0.49
same,"Rns/Rse, proton H9",HNE; ligand 1 mM + HNE 5 µM,0.64
same,"Rns/Rse, proton H12",HNE; ligand 1 mM + HNE 5 µM,0.74
same,"Rns/Rse, proton glc-H1’",HNE; ligand 1 mM + HNE 5 µM,0.31
same,"Rns/Rse, proton glc-H1”",HNE; ligand 1 mM + HNE 5 µM,0.47
same,"Anti-HNE activity, inhibitory ratio",[1]; 1 µM compound,10.25±1.73%
same,"Anti-HNE activity, inhibitory ratio",[1]; 3 µM compound,19.00±6.99 %
same,"Anti-HNE activity, inhibitory ratio",[1]; 10 µM compound,28.21±4.84 %
same,"Anti-HNE activity, inhibitory ratio",[1]; 30 µM compound,40.89±1.28 %
same,"Anti-HNE activity, inhibitory ratio",[1]; 100 µM compound,78.66±1.99 %
same,IC50,[1],~27.6 µM
"C=C(C)[C@@H]1CC[C@]2(C(=O)O)CC[C@]3(C)[C@H](CC[C@@H]4[C@@]5(C)CC[C@H](O)C(C)(C)[C@@H]5CC[C@]43C)[C@@H]12 [Compound 5, betulinic acid]","Rns/Rse, proton H13",HNE; free ligand 1 mM,1.51
same,"Rns/Rse, proton H19",HNE; free ligand 1 mM,0.82
same,"Rns/Rse, proton H24",HNE; free ligand 1 mM,1.02
same,"Rns/Rse, proton H29a",HNE; free ligand 1 mM,0.96
same,"Rns/Rse, proton H29b",HNE; free ligand 1 mM,0.97
same,"Rns/Rse, proton H13",HNE; ligand 1 mM + HNE 5 µM,0.97
same,"Rns/Rse, proton H19",HNE; ligand 1 mM + HNE 5 µM,0.79
same,"Rns/Rse, proton H24",HNE; ligand 1 mM + HNE 5 µM,0.95
same,"Rns/Rse, proton H29a",HNE; ligand 1 mM + HNE 5 µM,0.95
same,"Rns/Rse, proton H29b",HNE; ligand 1 mM + HNE 5 µM,0.96
same,"Anti-HNE activity, inhibitory ratio",[1]; 1 µM compound,8.25±1.88%
same,"Anti-HNE activity, inhibitory ratio",[1]; 3 µM compound,46.57±2.47 %
same,"Anti-HNE activity, inhibitory ratio",[1]; 10 µM compound,74.20±2.32 %
same,"Anti-HNE activity, inhibitory ratio",[1]; 30 µM compound,80.58±2.21 %
same,"Anti-HNE activity, inhibitory ratio","[1]; 30 µM compound, listed as betulinic acid",more than 80%
same,"Anti-HNE activity, inhibitory ratio",[1]; 100 µM compound,82.41±1.37 %
same,IC50,[1],~6.83 µM
"C=C(C)[C@@H]1CC[C@]2(C)CC[C@]3(C)[C@H](CC[C@@H]4[C@@]5(C)CC[C@H](O)C(C)(C)[C@@H]5CC[C@]43C)[C@@H]12 [Compound 6, lupeol]","Rns/Rse, proton H13",HNE; free ligand 1 mM,1.67
same,"Rns/Rse, proton H19",HNE; free ligand 1 mM,1.03
same,"Rns/Rse, proton H24",HNE; free ligand 1 mM,1.03
same,"Rns/Rse, proton H29a",HNE; free ligand 1 mM,1.23
same,"Rns/Rse, proton H29b",HNE; free ligand 1 mM,1.24
same,"Rns/Rse, proton H13",HNE; ligand 1 mM + HNE 5 µM,1.27
same,"Rns/Rse, proton H19",HNE; ligand 1 mM + HNE 5 µM,1.00
same,"Rns/Rse, proton H24",HNE; ligand 1 mM + HNE 5 µM,1.03
same,"Rns/Rse, proton H29a",HNE; ligand 1 mM + HNE 5 µM,1.23
same,"Rns/Rse, proton H29b",HNE; ligand 1 mM + HNE 5 µM,1.22
same,"Anti-HNE activity, inhibitory ratio",[1]; 1 µM compound,9.38±6.80%
same,"Anti-HNE activity, inhibitory ratio",[1]; 3 µM compound,19.01±10.00 %
same,"Anti-HNE activity, inhibitory ratio",[1]; 10 µM compound,51.92±15.22 %
same,"Anti-HNE activity, inhibitory ratio",[1]; 30 µM compound,88.00±6.26 %
same,"Anti-HNE activity, inhibitory ratio","[1]; 30 µM compound, listed as lupeol",more than 80%
same,"Anti-HNE activity, inhibitory ratio",[1]; 100 µM compound,93.56±1.19 %
same,IC50,[1],~8.2 µM
"CC(C)(O)[C@@H]1CC[C@](C)([C@H]2[C@@H](O)C[C@@]3(C)[C@@H]4C[C@H](O[C@@H]5O[C@H](CO)[C@@H](O)[C@H](O)[C@H]5O)[C@H]5C(C)(C)[C@@H](O[C@@H]6OC[C@@H](O)[C@H](O)[C@H]6O)CC[C@@]56C[C@@]46CC[C@]23C)O1 [Compound 7, astragaloside IV]",inhibition at 100 µM,[1],3.27%
same,levels of BALF NE and TNF-α in vivo,[2]; smoke exposure,did not observe the inhibitory effects
same,airway inflammation,"[2]; smoke exposure, intraperitoneal, negative control",did not inhibit
CC(C)=CCCC(C)(OC1OC(CO)C(O)C(O)C1O)C1CCC2(C)C1C(O)CC1C3(C)CCC(O)C(C)(C)C3C(OC3OC(CO)C(O)C(O)C3OC3OC(C)C(O)C(O)C3O)CC12C (stereo not drawn) [Compound 8],inhibition at 100 µM,[1],4.01%
CC(=O)OC(C)(C)/C=C/C(=O)[C@](C)(O)[C@H]1[C@H](O)C[C@@]2(C)[C@@H]3CC=C4[C@@H](C[C@H](O)C(=O)C4(C)C)[C@]3(C)C(=O)C[C@]12C [Compound 9],inhibition at 100 µM,[1],5.77%
CC(C)=CCCC1(C)CCC2(C)C3CCC4(C)C(C)C(=O)CCC4C3(C)CCC2(C)C1 (stereo not drawn) [Compound 10],inhibition at 100 µM,[1],2.33%
CC(=O)OC1CC(O)C23COC(O)C1(C)C2CC(O)C1(C)C3C(=O)C(OC(C)=O)C2(C)C(c3ccoc3)CC3OC321 (stereo not drawn) [Compound 11],inhibition at 100 µM,[1],4.28%
CC(C)C1=CC(=O)C(C)(C2[C@H](O)C[C@@]3(C)[C@@H]4CC=C5[C@@H](CC[C@@H](OC6OCC(O)C(O)C6OC6OC(C)C(O)C(O)C6O)C5(C)C)[C@]4(C)C(=O)C[C@]23C)O1 (stereo partly drawn) [Compound 12],inhibition at 100 µM,[1],0.8%
"CC(C)(C)C(=O)Oc1ccc(S(=O)(=O)Nc2ccccc2C(=O)NCC(=O)O)cc1 [ONO-5046, Sivelestat sodium hydrate, reference compound]",smoke-induced increase in BALF inflammatory cells and proinflammatory cytokine levels,"[2]; intraperitoneal, positive control",prevented
